Data as given in patent US20240108745A1, “BIOACTIVE SUBSTANCE CONJUGATE, PREPARATION METHOD THEREFOR AND USE THEREOF” (MEDILINK THERAPEUTICS (SUZHOU) CO., LTD., priority 2021, published 2024).

Test: Tumor tissue distribution of antibody drug conjugates in HT29 xenografts (A1.9 and ADC in plasma/serum and tumor)
Assay type: in vivo, BALB/c Nude mice
Conditions: BALB/c Nude, mouse, intravenous, 10 mg/kg, HT29 model, read-out: distribution difference of A1.9 in tumors compared with plasma
Method: Human colon cancer HT29 cells were purchased from ATCC. HT29 cells were adherently cultured in a […] culture dish, and the culture conditions were 1640 media containing 10% fetal bovine serum, and the cells were cultured at 37° C. in an incubator containing 5% CO2. When cells were in exponential growth phase, cells were digested with trypsin, harvested, counted, and inoculated.
After adapting to the laboratory environment for 2-5 days, BALB/c Nude mice were subcutaneously inoculated with HT29 cells in the right rib, with an inoculation amount of 5×10^6 cells/mouse and an inoculation volume of 0.2 ml (containing 50% Matrigel). The experiment was carried out when the tumor grew to about 200-300 mm^3.
The tumor tissue pieces were sheared into small size on ice, weighed and transferred to a grinding tube. The tissue homogenate was prepared by grinding them with normal saline solution at 1:5 (w/v); tissue homogenate supernatant was prepared by centrifugation for 10 min at 2˜8° C. and 1800× g, and then stored at −15˜−25° C. for use. Before use, it was taken out and left at 15-25° C., naturally warmed to room temperature, and then used.
For the analysis method of A1.9, refer to Example 6.9. […]

Compound `CC[C@@]1(O)C(=O)OCc2c1cc1n(c2=O)Cc2c-1nc1cc3c(cc1c2CCCO)OCO3` [Example A1.9, (S)-7-ethyl-7-hydroxy-14-(3-hydroxypropyl)-10,13-dihydro-11H-[1,3]dioxolo[4,5-g]pyrano[3′,4′:6,7]indolizino[1,2-b]quinolin-8,11(7H)-dione] has a Kp of no more than 18.
